{"source": "the NIST ThermoML archive (doi:10.1016/j.tca.2016.05.001)", "key": {"[1]": {"assay": "Molar enthalpy of transition or fusion", "conditions": "Crystal; DSC"}}, "note": "Values joined by “and” are separate entries in the source; they are usually repeats but may differ in a detail not shown here. Identical values can stand only once. ± gives the expanded uncertainty stated by the source.", "data": [{"compound": "c1cnc2c(c1)ccc1ncccc12", "note": "[1,5-diazaphenanthrene]", "values": [{"measurement": "vapor or sublimation pressure", "setting": "315 K, Crystal, Torsion effusion method", "value": "3.8e-05 ± 1.1e-05", "unit": "kPa"}, {"measurement": "vapor or sublimation pressure", "setting": "315.1 K, Crystal, Torsion effusion method", "value": "3.8e-05 ± 1.1e-05", "unit": "kPa"}, {"measurement": "vapor or sublimation pressure", "setting": "317.3 K, Crystal, Torsion effusion method", "value": "4.7e-05 ± 1.6e-05", "unit": "kPa"}, {"measurement": "vapor or sublimation pressure", "setting": "317.9 K, Crystal, Torsion effusion method", "value": "5.7e-05 ± 1.8e-05", "unit": "kPa"}, {"measurement": "vapor or sublimation pressure", "setting": "318.6 K, Crystal, Torsion effusion method", "value": "5.7e-05 ± 1.7e-05", "unit": "kPa"}, {"measurement": "vapor or sublimation pressure", "setting": "319.5 K, Crystal, Torsion effusion method", "value": "6.7e-05 ± 2.4e-05", "unit": "kPa"}, {"measurement": "vapor or sublimation pressure", "setting": "320.5 K, Crystal, Torsion effusion method", "value": "7.6e-05 ± 2.4e-05", "unit": "kPa"}, {"measurement": "vapor or sublimation pressure", "setting": "320.8 K, Crystal, Torsion effusion method", "value": "7.6e-05 ± 2.9e-05", "unit": "kPa"}, {"measurement": "vapor or sublimation pressure", "setting": "322.6 K, Crystal, Torsion effusion method", "value": "0.0001 ± 3e-05", "unit": "kPa"}, {"measurement": "vapor or sublimation pressure", "setting": "322.9 K, Crystal, Torsion effusion method", "value": "0.00011 ± 4e-05", "unit": "kPa"}, {"measurement": "vapor or sublimation pressure", "setting": "323 K, Crystal, Torsion effusion method", "value": "0.000114 ± 3.7e-05", "unit": "kPa"}, {"measurement": "vapor or sublimation pressure", "setting": "323.8 K, Crystal, Torsion effusion method", "value": "0.00011 ± 4e-05", "unit": "kPa"}, {"measurement": "vapor or sublimation pressure", "setting": "325.3 K, Crystal, Torsion effusion method", "value": "0.000142 ± 5.1e-05", "unit": "kPa"}, {"measurement": "vapor or sublimation pressure", "setting": "325.6 K, Crystal, Torsion effusion method", "value": "0.00014 ± 5e-05", "unit": "kPa"}, {"measurement": "vapor or sublimation pressure", "setting": "326 K, Crystal, Torsion effusion method", "value": "0.00015 ± 5e-05", "unit": "kPa"}, {"measurement": "vapor or sublimation pressure", "setting": "326.2 K, Crystal, Torsion effusion method", "value": "0.00017 ± 6e-05", "unit": "kPa"}, {"measurement": "vapor or sublimation pressure", "setting": "327.5 K, Crystal, Torsion effusion method", "value": "0.00021 ± 7e-05", "unit": "kPa"}, {"measurement": "vapor or sublimation pressure", "setting": "328.2 K, Crystal, Torsion effusion method", "value": "0.000208 ± 7.2e-05 kPa and 0.00021 ± 7e-05 kPa"}, {"measurement": "vapor or sublimation pressure", "setting": "328.7 K, Crystal, Torsion effusion method", "value": "0.00023 ± 7e-05", "unit": "kPa"}, {"measurement": "vapor or sublimation pressure", "setting": "329.1 K, Crystal, Torsion effusion method", "value": "0.00025 ± 8e-05", "unit": "kPa"}, {"measurement": "vapor or sublimation pressure", "setting": "329.6 K, Crystal, Torsion effusion method", "value": "0.00026 ± 7e-05", "unit": "kPa"}, {"measurement": "vapor or sublimation pressure", "setting": "330.5 K, Crystal, Torsion effusion method", "value": "0.00028 ± 0.0001", "unit": "kPa"}, {"measurement": "vapor or sublimation pressure", "setting": "331 K, Crystal, Torsion effusion method", "value": "0.0003 ± 0.0001", "unit": "kPa"}, {"measurement": "vapor or sublimation pressure", "setting": "331.5 K, Crystal, Torsion effusion method", "value": "0.00033 ± 0.0001", "unit": "kPa"}, {"measurement": "vapor or sublimation pressure", "setting": "332 K, Crystal, Torsion effusion method", "value": "0.00032 ± 0.0001", "unit": "kPa"}, {"measurement": "vapor or sublimation pressure", "setting": "333 K, Crystal, Torsion effusion method", "value": "0.00041 ± 0.00014", "unit": "kPa"}, {"measurement": "vapor or sublimation pressure", "setting": "334.5 K, Crystal, Torsion effusion method", "value": "0.00044 ± 0.00017", "unit": "kPa"}, {"measurement": "vapor or sublimation pressure", "setting": "334.9 K, Crystal, Torsion effusion method", "value": "0.00051 ± 0.00017", "unit": "kPa"}, {"measurement": "vapor or sublimation pressure", "setting": "335 K, Crystal, Torsion effusion method", "value": "0.00047 ± 0.00017", "unit": "kPa"}, {"measurement": "vapor or sublimation pressure", "setting": "336.2 K, Crystal, Torsion effusion method", "value": "0.00061 ± 0.00017", "unit": "kPa"}, {"measurement": "vapor or sublimation pressure", "setting": "336.5 K, Crystal, Torsion effusion method", "value": "0.00055 ± 0.00015", "unit": "kPa"}, {"measurement": "vapor or sublimation pressure", "setting": "337.7 K, Crystal, Torsion effusion method", "value": "0.00072 ± 0.00024", "unit": "kPa"}, {"measurement": "vapor or sublimation pressure", "setting": "338.3 K, Crystal, Torsion effusion method", "value": "0.00072 ± 0.00019", "unit": "kPa"}, {"measurement": "vapor or sublimation pressure", "setting": "339.3 K, Crystal, Torsion effusion method", "value": "0.00072 ± 0.00027", "unit": "kPa"}, {"measurement": "vapor or sublimation pressure", "setting": "340 K, Crystal, Torsion effusion method", "value": "0.00095 ± 0.00024 kPa and 0.00091 ± 0.00024 kPa"}, {"measurement": "vapor or sublimation pressure", "setting": "340.4 K, Crystal, Torsion effusion method", "value": "0.00087 ± 0.00024", "unit": "kPa"}, {"measurement": "vapor or sublimation pressure", "setting": "341.5 K, Crystal, Torsion effusion method", "value": "0.00112 ± 0.00043", "unit": "kPa"}, {"measurement": "vapor or sublimation pressure", "setting": "342.6 K, Crystal, Torsion effusion method", "value": "0.00108 ± 0.00029", "unit": "kPa"}, {"measurement": "vapor or sublimation pressure", "setting": "343.5 K, Crystal, Torsion effusion method", "value": "0.00127 ± 0.00036", "unit": "kPa"}, {"measurement": "vapor or sublimation pressure", "setting": "380.1 K, Liquid, Rate of evaporation", "value": "0.023 ± 0.009", "unit": "kPa"}, {"measurement": "vapor or sublimation pressure", "setting": "382.1 K, Liquid, Rate of evaporation", "value": "0.028 ± 0.011", "unit": "kPa"}, {"measurement": "vapor or sublimation pressure", "setting": "385.6 K, Liquid, Rate of evaporation", "value": "0.032 ± 0.013", "unit": "kPa"}, {"measurement": "vapor or sublimation pressure", "setting": "388.2 K, Liquid, Rate of evaporation", "value": "0.037 ± 0.015", "unit": "kPa"}, {"measurement": "vapor or sublimation pressure", "setting": "390.3 K, Liquid, Rate of evaporation", "value": "0.043 ± 0.017", "unit": "kPa"}, {"measurement": "vapor or sublimation pressure", "setting": "393.1 K, Liquid, Rate of evaporation", "value": "0.05 ± 0.02", "unit": "kPa"}, {"measurement": "vapor or sublimation pressure", "setting": "395.6 K, Liquid, Rate of evaporation", "value": "0.057 ± 0.023", "unit": "kPa"}, {"measurement": "vapor or sublimation pressure", "setting": "398.1 K, Liquid, Rate of evaporation", "value": "0.065 ± 0.026", "unit": "kPa"}, {"measurement": "vapor or sublimation pressure", "setting": "403.1 K, Liquid, Rate of evaporation", "value": "0.086 ± 0.035", "unit": "kPa"}, {"measurement": "vapor or sublimation pressure", "setting": "405.6 K, Liquid, Rate of evaporation", "value": "0.097 ± 0.039", "unit": "kPa"}, {"measurement": "vapor or sublimation pressure", "setting": "408.1 K, Liquid, Rate of evaporation", "value": "0.113 ± 0.046", "unit": "kPa"}, {"measurement": "vapor or sublimation pressure", "setting": "410.9 K, Liquid, Rate of evaporation", "value": "0.132 ± 0.054", "unit": "kPa"}, {"measurement": "vapor or sublimation pressure", "setting": "413.1 K, Liquid, Rate of evaporation", "value": "0.145 ± 0.059", "unit": "kPa"}, {"measurement": "vapor or sublimation pressure", "setting": "418.1 K, Liquid, Rate of evaporation", "value": "0.187 ± 0.076", "unit": "kPa"}, {"measurement": "vapor or sublimation pressure", "setting": "423.1 K, Liquid, Rate of evaporation", "value": "0.24 ± 0.098", "unit": "kPa"}, {"measurement": "vapor or sublimation pressure", "setting": "428.1 K, Liquid, Rate of evaporation", "value": "0.302 ± 0.12", "unit": "kPa"}, {"measurement": "Triple point temperature", "setting": "Crystal, DSC", "value": "351.7 ± 2.1", "unit": "K"}, {"measurement": "Molar enthalpy of transition or fusion", "setting": "[1]", "value": "6.12 ± 0.454", "unit": "kcal/mol"}]}]}
